Results published in patent US20090099167A1, “Organic compounds” (Novartis Institutes for Biomedical Research, priority 2004, published 2009).

Biological target: T1, human EphB4 receptor (Homo sapiens, UniProt P54760)
T1 construct: made in house; host or cells: Sf9 or Sf21 (baculovirus)
T1 sequence (P54760 566-987): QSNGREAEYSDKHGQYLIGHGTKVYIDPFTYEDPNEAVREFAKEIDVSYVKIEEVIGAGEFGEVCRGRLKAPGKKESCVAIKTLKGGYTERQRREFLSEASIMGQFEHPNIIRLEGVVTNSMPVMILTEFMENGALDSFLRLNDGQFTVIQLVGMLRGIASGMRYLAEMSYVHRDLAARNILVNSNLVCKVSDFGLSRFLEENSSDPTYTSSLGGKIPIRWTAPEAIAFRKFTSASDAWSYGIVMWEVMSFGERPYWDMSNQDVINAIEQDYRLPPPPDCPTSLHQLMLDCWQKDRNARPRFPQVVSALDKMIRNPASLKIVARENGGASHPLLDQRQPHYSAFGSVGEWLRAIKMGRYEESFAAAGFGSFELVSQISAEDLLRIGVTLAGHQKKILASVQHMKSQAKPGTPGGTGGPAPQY
Assay: EphB4 kinase assay, GST-EphB, 33P incorporation into poly(Glu,Tyr)
Format: biochemical
Details: Table 5; read-out: EphB4, IC50 class
Source text: EphB4: Production and measure of enzymatic activity: Generation of Bac-to-Bac™ (Initrogen Life Technologies, Basel, Switzerland) GST-fusion expression vectors: Entire cytoplasmatic coding regions of the EphB-class are amplified by PCR from cDNA libraries derived from human placenta or brain, respectively. Recombinant baculovirus are generated that express the amino acid region 566-987 of the human EphB4 receptor (SwissProt Database, Accession No. P54760). GST sequence is cloned into pFastBac1® vector (Invitrogen Life Technologies, Basel, Switzerland) and PCR amplified. cDNAs encoding EphB4-receptor domains, respectively, are cloned in frame 3′prime to the GST sequence into this modified FastBac1 vector to generate pBac-to-Bac™ donor vectors. Single colonies arising from the transformation are inoculated to give overnight cultures for small scale plasmid preparation. […] By automated sequencing the inserts and approximately 50 bp of the flanking vector sequences are confirmed on both strands. Production of viruses: Viruses for each of the kinases are made according to the protocol supplied by GIBCO if not stated otherwise. In brief, transfer vectors containing the kinase domains are transfected into the DH10Bac cell line (GIBCO) and plated on selective agar plates. Colonies without insertion of the fusion sequence into the viral genome (carried by the bacteria) are blue. Single white colonies are picked and viral DNA (bacmid) isolated from the bacteria by standard plasmid purification procedures. Sf9 cells or Sf21 cells are then transfected in 25 cm2 flasks with the viral DNA using Cellfectin reagent according to the protocol. Purification of GST-tagged kinases: The centrifuged cell lysate is loaded onto a 2 mL glutathione-sepharose column (Pharmacia) and washed three times with 10 mL of 25 mM Tris-HCl, pH 7.5, 2 mM EDTA, 1 mM DTT, 200 mM NaCl. The GST-tagged proteins are then eluted by 10 applications (1 mL each) of 25 mM Tris-HCl, pH 7.5, 10 mM reduced-glutathione, 100 mM NaCl, 1 mM DTT, 10% Glycerol and stored at −70° C. Protein kinase assays: The activities of protein kinases are assayed in the presence or absence of inhibitors, by measuring the incorporation of 33P from [γ33P]ATP into a polymer of glutamic acid and tyrosine (poly(Glu,Tyr)) as a substrate. The kinase assays with purified GST-EphB (30 ng) are carried out for 15-30 min at ambient temperature in a final volume of 30 μL containing 20 mM Tris.HCl, pH 7.5, 10 mM MgCl2, 3-50 mM MnCl2, 0.01 mM Na3VO4, 1% DMSO, 1 mM DTT, 3 μg/mL poly(Glu,Tyr) 4:1 (Sigma; St. Louis, Mo., USA) and 2.0-3.0 μM ATP (γ-[33P]-ATP 0.1 μCi). The assay is terminated by the addition of 20 μL of 125 mM EDTA. Subsequently, 40 μl of the reaction mixture are transferred onto Immobilon-PVDF membrane (Millipore, Bedford, Mass., USA) previously soaked for 5 min with methanol, rinsed with water, then soaked for 5 min with 0.5% H3PO4 and mounted on vacuum manifold with disconnected vacuum source. After spotting all samples, vacuum is connected and each well rinsed with 200 μl 0.5% H3PO4. Membranes are removed and washed 4× on a shaker with 1.0% H3PO4, once with ethanol. Membranes are counted after drying at ambient temperature, mounting in Packard TopCount96-well frame, and addition of 10 μL/well of Microscint™ (Packard). IC50 values are calculated by linear regression analysis of the percentage inhibition of each compound in duplicate, at four concentrations (usually 0.01, 0.1, 1 and 10 μM). One unit of protein kinase activity is defined as 1 nmole of 33P ATP transferred from [γ33P] ATP to the substrate protein per minute per mg of protein at 37° C. Compounds of formula I show EphB4 inhibition down to 10 nM, preferably IC50 values between 0.01-1.0 μM.

Row | Structure (SMILES) | IC50 [nM]
1 | COc1ccc(-c2cnn3c(N)c(-c4ccc(F)c(Cl)c4)c(C)nc23)cc1OC [Example 94, 6-(3-Chloro-4-fluoro-phenyl)-3-(3,4-dimethoxy-phenyl)-5-methyl-pyrazolo[1,5-a]pyrimidin-7-ylamine] | < 1000
2 | COc1ccc(-c2cnn3c(N)c(-c4ccc(F)c(Cl)c4)c(C)nc23)cc1 [Example 95, 6-(3-Chloro-4-fluoro-phenyl)-3-(4-methoxy-phenyl)-5-methyl-pyrazolo[1,5-a]pyrimidin-7-ylamine] | < 1000
3 | Cc1nc2c(-c3cccc(N4CCN(CCO)CC4)c3)cnn2c(N)c1-c1ccc(F)cc1 [Example 97, 2-(4-{3-[7-Amino-6-(4-fluoro-phenyl)-5-methyl-pyrazolo[1,5-a]pyrimidin-3-yl]-phenyl}-piperazin-1-yl)-ethanol] | < 1000
4 | Cc1nc2c(-c3cccc(N4CCC(N5CCCC5)CC4)c3)cnn2c(N)c1-c1cccc(Cl)c1 [Example 102, 6-(3-Chloro-phenyl)-5-methyl-3-[3-(4-pyrrolidin-1-yl-piperidin-1-yl)-phenyl]-pyrazolo[1,5-a]pyrimidin-7-ylamine] | < 1000
5 | Cc1nc2c(-c3cccc(N4CC[N+](C)([O-])CC4)c3)cnn2c(N)c1-c1ccc(F)cc1 [Example 106, 6-(4-Fluoro-phenyl)-5-methyl-3-[3-(4-methyl-4-oxy-piperazin-1-yl)-phenyl]-pyrazolo[1,5-a]pyrimidin-7-ylamine] | < 1000

More lines, now with the values ahead:

Row | IC50 [nM] | Structure (SMILES)
6 | < 1000 | COc1ccc(-c2cnn3c(N)c(-c4ccc(F)cc4)c(C)nc23)cc1 [Example 96, 6-(4-Fluoro-phenyl)-3-(4-methoxy-phenyl)-5-methyl-pyrazolo[1,5-a]pyrimidin-7-ylamine]
7 | < 1000 | Cc1nc2c(-c3cccc(N4CCN(C)CC4)c3)cnn2c(N)c1-c1ccc(F)c(F)c1 [Example 98, 6-(3,4-Difluoro-phenyl)-5-methyl-3-[3-(4-methyl-piperazin-1-yl)-phenyl]-pyrazolo[1,5-a]pyrimidin-7-ylamine]
8 | < 1000 | COc1ccc(-c2cnn3c(N)c(-c4ccc(F)c(F)c4)c(C)nc23)cc1OC [Example 99, 6-(3,4-Difluoro-phenyl)-3-(3,4-dimethoxy-phenyl)-5-methyl-pyrazolo[1,5-a]pyrimidin-7-ylamine]
9 | < 1000 | Cc1nc2c(-c3cccc(N4CCN(CCO)CC4)c3)cnn2c(N)c1-c1ccc(F)c(Cl)c1 [Example 100, 2-(4-{3-[7-Amino-6-(3-chloro-4-fluoro-phenyl)-5-methyl-pyrazolo[1,5-a]pyrimidin-3-yl]-phenyl}-piperazin-1-yl)-ethanol]
10 | < 1000 | Cc1nc2c(-c3cccc(N4CCN(CCO)CC4)c3)cnn2c(N)c1-c1ccc(F)c(F)c1 [Example 101, 2-(4-{3-[7-Amino-6-(3,4-difluoro-phenyl)-5-methyl-pyrazolo[1,5-a]pyrimidin-3-yl]-phenyl}-piperazin-1-yl)-ethanol]
11 | < 1000 | Cc1nc2c(-c3cccc(N4CCC(N5CCCC5)CC4)c3)cnn2c(N)c1-c1ccc(F)cc1 [Example 103, 6-(4-Fluoro-phenyl)-5-methyl-3-[3-(4-pyrrolidin-1-yl-piperidin-1-yl)-phenyl]-pyrazolo[1,5-a]pyrimidin-7-ylamine]
12 | < 1000 | Cc1nc2c(-c3cccc([N+]4([O-])CC[N+](C)([O-])CC4)c3)cnn2c(N)c1-c1ccc(F)cc1 (stereo not drawn) [Example 107, 6-(4-Fluoro-phenyl)-5-methyl-3-[3-(4-methyl-1,4-dioxy-piperazin-1-yl)-phenyl]-pyrazolo[1,5-a]pyrimidin-7-ylamine]
